Experimental findings from US8961942B2, “Sunless tanning compositions with adjuvants comprising sulfur comprising moieties” (Conopco, Inc., priority 2011, dated 2015) are described below.

Structures can show the parent of a compound that is named as a salt.

A short description of the assay: In vitro color change (ΔE*) of adjuvant plus dihydroxyacetone formulations on synthetic skin. The following applies: for ΔE* at 5 hours / ΔE* at 21 hours / ΔE* at 46 hours: Example 4: total adjuvant at molar equivalent of 1% glycine, dihydroxyacetone 2.5%; for ΔE* at 5 hours: pH 3.5, 5 hours; for ΔE* at 21 hours: pH 3.5, 21 hours; for ΔE* at 46 hours: pH 3.5, 46 hours; for ΔE* at 5.5 Hours / ΔE* at 29 Hours / ΔE* at 53 Hours: adjuvant at molar equivalent of 1% glycine with 2.5% dihydroxyacetone, pH 3.5, 5 μl/cm^2, 35° C. and 40% RH. The procedure:
Commercially available Vitro-Skin® (synthetic skin) was used as the substrate and pH of the adjuvant and dihydroxyacetone formulations were maintained at 3.5, adjusted with citric acid.
The synthetic skin was pre-hydrated at 95% Relative Humidity (RH) for about 24 hours and then treated with formulations at a dosage of 5 μl/cm^2. The treated synthetic skin was stored at 35° C. and 40% RH for certain time frames, not exceeding 53 hours. Color development was monitored periodically after treatment using a HunterLab Labscan XE colorimeter. ΔE* is defined as √[(ΔL*)^2+(Δa+)^2+(Δb*)^2] where ΔL* is lightness change, Δa* is the change in +red/−green, Δb* is the change in […] and further where smaller ΔE* indicates less color change.

With `NCCOS(=O)(=O)O` [2-Aminoethyl Hydrogen Sulfate], the “ΔE* at 5 hours” value was 15, the “ΔE* at 21 hours” value was 25, the “ΔE* at 46 hours” value is given as 27 and the “ΔE* at 5.5 Hours” value turned out to be 20.0. Further, the “ΔE* at 29 Hours” value came out at 35.0 and the “ΔE* at 53 Hours” value was 39.0.

For the compound `NCC(=O)O` [Glycine, reference compound], the “ΔE* at 5.5 Hours” value stood at 15.5, the “ΔE* at 29 Hours” value worked out at 33.0 and the “ΔE* at 53 Hours” value turned out to be 37.0.

On to `NCCS(=O)O` [Hypotaurine], for which the “ΔE* at 5.5 Hours” value worked out at 8.0, the “ΔE* at 29 Hours” value is given as 21.0 and the “ΔE* at 53 Hours” value was 26.0.

For the compound `CSCCN` [2-Methylthio-Ethylamine], the “ΔE* at 5.5 Hours” value turned out to be 22.0, the “ΔE* at 29 Hours” value was found to be 32.0 and the “ΔE* at 53 Hours” value amounted to 36.0.

Consider `NCCS(=O)(=O)O` [Taurine], for which the “ΔE* at 5 hours” value was found to be 9, the “ΔE* at 21 hours” value stood at 26, the “ΔE* at 46 hours” value worked out at 28 and the “ΔE* at 5.5 Hours” value was 17.0. The “ΔE* at 29 Hours” value was 33.0 and the “ΔE* at 53 Hours” value is 36.0.
